How the values were obtained:
[1] = biological target: DNA gyrase (Escherichia coli); test: Inhibition of Escherichia coli Quinolone resistant gyrase Supercoiling activity
[2] = biological target: DNA gyrase (Escherichia coli); test: Inhibition effect on Escherichia coli Wild Type DNA gyrase Supercoiling activity

IC50 [1]: 71.5 µM
IC50 [2]: 8.8 µM
Structure (SMILES): N[C@H]1CCCN(c2c(F)cc3c(=O)c(C(=O)O)cn(C4CC4)c3c2F)C1
